Reference: publication PMC7118210 (Frontiers in Pharmacology, 2020)
Read-outs that look alike come from different tables or passages of the source.

Experiment: Single ascending dose and food-effect pharmacokinetics of naringin tablets in healthy humans
Format: in vivo, human
Details: for half-life / effect of a high-fat diet on t1/2, Tmax, Cmax and AUC / Tmax / AUC(0-inf) / AUC(0-t) / Cmax / MRT last / MRT inf / CL: human; for half-life / Tmax / AUC(0-inf) / AUC(0-t) / Cmax / MRT last / MRT inf: plasma; for effect of a high-fat diet on t1/2, Tmax, Cmax and AUC: food-effect trial, naringin 160 mg p.o.; for MRT last: read-out: MRT0-t; for MRT inf: read-out: MRT0-∞
Source text: Participants were healthy males and females, 18 to 40 years old, ≥50 kg weight, 19 to 25 kg m^2 body mass index. The health condition of participants was considered good based on the screened medical history, physical examination, vital signs, electrocardiogram, and laboratory examination. […] Clinical laboratory test results (sodium, potassium, total protein, white blood and red blood cell counts, hematocrit, hemoglobin, platelet count, aspartate aminotransferase, alanine aminotransferase, gamma-glutamyl transferase, blood urea nitrogen, creatinine, total bilirubin, alkaline phosphatase, creatine kinase, lactate dehydrogenase, calcium, chloride, phosphorus, albumin, globulin, cholesterol, triglycerides, glucose, uric acid, and urinalysis) had to be within normal ranges, without other clinically significant abnormalities. During the study duration, participants were required to use barrier contraception with spermicide during sexual intercourse. During the trial, female participants were in the nonmenstrual, nonpregnant, and nonlactation periods, and they were nonsmokers. Participants were not planning a pregnancy within 6 months of the clinical trials, they communicated with the investigator, understood and complied with the study requirements, and signed informed consent.
Using the Statistical Analysis System (SAS) software (Version 9.4, SAS Institute Inc., Cary, NC, USA), subject randomization and blinding/masking were performed by statisticians from the Department of Health Statistics at the Second Military Medical University.
All blood samples were transferred into heparin-treated centrifuge tubes and centrifuged for 10 min at 4,000 rpm and 4°C. All human urine samples were mixed and transferred (4 ml) into storage tubes. All biological samples were stored at −80°C.
The optimal volume and activity in unit volume of enzyme solution [0.2 M acetic acid/water solution: 0.2 M ammonium acetate/water solution, 15:35 (v/v)] were determined through a pretest of the enzyme (rat plasma, 10 μl, 10 U μl^-1; dog plasma, 10 μl, 10 U μl^-1; human plasma, 20 μl, 20 U μl^-1; human urine, 10 μl, 10 U μl^-1). […] To each fecal sample, 9-fold methanol-normal saline (2:1, v/v) was added, mixed (18,000 rpm, 15 min) by vortexing and centrifuged (10 min, 9,000 rpm, 4°C). […] Then, all plasma, urine, and fecal samples were extracted with ethyl acetate (rat plasma, 800 μl; dog plasma, 1,000 μl; human plasma, 3,000 μl; human urine, 3,000 μl; human feces, 3,000 μl) for at least 3 min by vortexing, centrifuged for 10 min at 3,900 rpm and 4°C; supernatants were transferred into centrifuge tubes and dried with N2. The solid material was dissolved with acetonitrile-water (1:1, v/v) and injected into the ultra high-performance liquid chromatography coupled with triple quadrupole mass spectrometry (UHPLC/MS/MS) system as described below.
The analysis of nonclinical and clinical samples was performed with a UHPLC/MS/MS system that consisted of a Shimadzu Nexera X2 ultra high-performance liquid chromatography (UHPLC) (Shimadzu Corp., Kyoto, Japan) coupled with an AB Sciex API4000 triple-quadrupole mass spectrometry (MS/MS) system (AB Sciex, Foster City, CA, USA) equipped with an electrospray ionization source and controlled by Analyst (v. 1.6.2) software. […] The mobile phase consisted of 0.1% formic acid (v/v) in water (A) and 0.1% formic acid in acetonitrile (B) using a linear gradient of 90% A (0–0.5 min), 90 to 60% A (0.5–1.5 min), 60% to 40% A (1.5–3.5 min), 40% to 10% A (3.5–4.5 min), 10% A (4.5–5.5 min), 10% to 90% A (5.5–6.0 min), and 90% A (6.0–7.5 min) for plasma; and 80% A (0–0.2 min), 80 to 64% A (0.2–2.0 min), 64% to 63% A (2.0–4.4 min), 63% to 0% A (4.4–4.5 min), 0% A (4.5–5.5 min), 0% to 90% A (5.5–5.6 min), 90% A (5.6–5.9 min), 90% to 35% A (5.9–6.0 min), 35% A (6.0–6.2 min), 35 to 80% A (6.2–6.3 min), and 80% A (6.3–7.5 min) for urine and feces.

[1] = both sexes, oral, naringin in humans, clinical studies overall
[2] = both sexes, po, 40 mg, naringin 40 mg p.o. single dose
[3] = both sexes, po, 80 mg, naringin 80 mg p.o. single dose
[4] = both sexes, po, 160 mg, naringin 160 mg (high-fat diet) p.o. single dose
[5] = both sexes, po, 160 mg, naringin 160 mg p.o. single dose
[6] = both sexes, po, 320 mg, naringin 320 mg p.o. single dose
[7] = both sexes, po, 480 mg, naringin 480 mg p.o. single dose
[8] = female, po, 40 mg, naringin 40 mg p.o. single dose
[9] = female, po, 80 mg, naringin 80 mg p.o. single dose
[10] = female, po, 160 mg, naringin 160 mg p.o. single dose
[11] = female, po, 160 mg, naringin 160 mg p.o. single dose, high-fat diet group, female
[12] = male, po, 40 mg, naringin 40 mg p.o. single dose
[13] = male, po, 80 mg, naringin 80 mg p.o. single dose
[14] = male, po, 160 mg, naringin 160 mg p.o. single dose
[15] = male, po, 160 mg, naringin 160 mg p.o. single dose, high-fat diet group, male

In the case of `O=C1C[C@@H](c2ccc(O)cc2)Oc2cc(O)cc(O)c21` [naringenin, Naringenin], the half-life (both sexes, oral, naringenin in humans, studies overall) is reported as 2.6 ± 1.89 h, the “effect of a high-fat diet on t1/2, Tmax, Cmax and AUC” value is reported as “insignificantly altered” and the lag-time in plasma (human plasma, after p.o. naringin) is reported as 5.74 ± 2.38 h. The “time for concentrations to increase to Cmax after the lag-time” value (humans, after p.o. naringin) was “about 3.62 ± 3.19 h”.
`C[C@@H]1O[C@@H](O[C@H]2[C@H](Oc3cc(O)c4c(c3)O[C@H](c3ccc(O)cc3)CC4=O)O[C@H](CO)[C@@H](O)[C@@H]2O)[C@H](O)[C@H](O)[C@H]1O` [naringin, Naringin] showed a Tmax [1] of 2.09 ± 1.15 h, a half-life [1] of 2.69 ± 1.77 h and an AUC(0-inf) [2] of 9.99 ± 4.22 ng·h/mL. It also gave an AUC(0-t) [2] of 7.61 ± 3.5 ng·h/mL, a Cmax [2] of 2.24 ± 0.67 ng/mL and a Tmax [2] of 1.97 ± 1.11 h. For the same molecule, the half-life [2] was 2.48 ± 1.64 h, the MRT last [2] was 2.66 ± 0.443 h and the MRT inf [2] was 4.9 ± 1.69 h. It also gave an AUC(0-inf) [3] of 12.2 ± 3.19 ng·h/mL, an AUC(0-t) [3] of 9.27 ± 3.37 ng·h/mL and a Cmax [3] of 2.94 ± 1.17 ng/mL. For the same molecule, the Tmax [3] was 2.09 ± 1.39 h, the half-life [3] was 1.9 ± 1.22 h and the MRT last [3] was 2.8 ± 0.543 h. It also gave an MRT inf [3] of 3.83 ± 1.69 h, an AUC(0-inf) [4] of 18.2 ± 5.81 ng·h/mL and an AUC(0-t) [4] of 12.8 ± 4.74 ng·h/mL. For the same molecule, the Cmax [4] was 3.04 ± 1.15 ng/mL, the Tmax [4] was 2.66 ± 1.87 h and the half-life [4] was 3.11 ± 1.95 h. It also gave an MRT last [4] of 3.45 ± 1.22 h, an MRT inf [4] of 6.19 ± 2.77 h and an AUC(0-inf) [5] of 22.4 ± 9.36 ng·h/mL. It also gave an AUC(0-t) [5] of 15.7 ± 7.51 ng·h/mL, a Cmax [5] of 4.29 ± 2.63 ng/mL and a Tmax [5] of 2.5 ± 1.41 h. For the same molecule, the half-life [5] was 3.64 ± 3.01 h, the MRT last [5] was 3.3 ± 1.12 h and the MRT inf [5] was 6.54 ± 4.41 h. For the same molecule, the AUC(0-inf) [6] was 39.8 ± 32.2 ng·h/mL, the AUC(0-t) [6] was 37.5 ± 32.2 ng·h/mL and the Cmax [6] was 10.9 ± 12.4 ng/mL. The Tmax [6] was 1.66 ± 0.99 h, the half-life [6] was 2.51 ± 1.58 h and the MRT last [6] was 3.17 ± 0.677 h. It also gave an MRT inf [6] of 4.01 ± 1.05 h, an AUC(0-inf) [7] of 21.2 ± 7.95 ng·h/mL and an AUC(0-t) [7] of 19.4 ± 7.86 ng·h/mL. The Cmax [7] was 5.69 ± 2.8 ng/mL, the Tmax [7] was 1.66 ± 0.834 h and the half-life [7] was 2.01 ± 0.498 h. The MRT last [7] was 3.08 ± 0.704 h, the MRT inf [7] was 3.86 ± 0.779 h and the AUC(0-inf) [8] was 5.83 ± 0.737 ng·h/mL. It also gave an AUC(0-t) [8] of 4.64 ± 1.01 ng·h/mL, a Cmax [8] of 1.92 ± 0.516 ng/mL and a Tmax [8] of 2.67 ± 1.53 h. The half-life [8] was 1.49 ± 0.849 h, the AUC(0-inf) [9] was 11.5 ± 2.69 ng·h/mL and the AUC(0-t) [9] was 10.2 ± 2.28 ng·h/mL. It also gave a Cmax [9] of 3.3 ± 0.916 ng/mL, a Tmax [9] of 1.44 ± 0.657 h and a half-life [9] of 1.48 ± 0.448 h. It also gave an AUC(0-inf) [10] of 25.9 ± 8.47 ng·h/mL, an AUC(0-t) [10] of 17.8 ± 5.04 ng·h/mL and a Cmax [10] of 3.44 ± 1.08 ng/mL. For the same molecule, the Tmax [10] was 3.25 ± 1.71 h, the half-life [10] was 4.57 ± 3.65 h and the AUC(0-inf) [11] was 20.9 ± 4.78 ng·h/mL. The AUC(0-t) [11] was 16.1 ± 3.27 ng·h/mL, the Cmax [11] was 3.78 ± 1.26 ng/mL and the Tmax [11] was 2.88 ± 2.02 h. The half-life [11] was 2.54 ± 1.96 h, the “effect of a high-fat diet on t1/2, Tmax, Cmax and AUC” value was “insignificantly altered” and the AUC(0-inf) [12] was 12.5 ± 3.18 ng·h/mL. It also gave an AUC(0-t) [12] of 9.39 ± 3.23 ng·h/mL, a Cmax [12] of 2.43 ± 0.727 ng/mL and a Tmax [12] of 1.55 ± 0.622 h. The half-life [12] was 3.07 ± 1.78 h, the AUC(0-inf) [13] was 13.2 ± 4.16 ng·h/mL and the AUC(0-t) [13] was 8.35 ± 4.36 ng·h/mL. For the same molecule, the Cmax [13] was 2.58 ± 1.43 ng/mL, the Tmax [13] was 2.75 ± 1.71 h and the half-life [13] was 2.46 ± 1.83 h. It also gave an AUC(0-inf) [14] of 17.7 ± 9.93 ng·h/mL, an AUC(0-t) [14] of 13.7 ± 9.73 ng·h/mL and a Cmax [14] of 5.14 ± 3.6 ng/mL. The Tmax [14] was 1.75 ± 0.5 h, the half-life [14] was 2.41 ± 1.79 h and the AUC(0-inf) [15] was 14.7 ± 5.83 ng·h/mL. It also gave an AUC(0-t) [15] of 9.56 ± 3.57 ng·h/mL, a Cmax [15] of 2.3 ± 0.201 ng/mL and a Tmax [15] of 2.44 ± 1.98 h. The half-life [15] was 3.86 ± 2.02 h, the CL (naringin 40 mg p.o. single dose) was 1120 ± 605 mL/min/kg and the CL (naringin 80 mg p.o. single dose) was 1720 ± 832 mL/min/kg. It also gave a CL (naringin 160 mg (high-fat diet) p.o. single dose) of 2870 ± 1070 mL/min/kg, a CL (naringin 160 mg p.o. single dose) of 2400 ± 1030 mL/min/kg and a CL (naringin 320 mg p.o. single dose) of 3370 ± 2180 mL/min/kg. It also gave a CL (naringin 480 mg p.o. single dose) of 7950 ± 6200 mL/min/kg.
